Measurements taken from patent US7348025B2, “Small particle liposome aerosols for delivery of anticancer drugs” (priority 1999, dated 2008).
Where “and” joins values, the source holds several entries; their conditions need not be identical. Identical values can stand only once. Like-named read-outs stand apart in the source and are kept apart here.

Assays:
[1] = Time dependent organ distribution of CPT after intranasal administration of DLPC liposomes; format: in vivo; conditions: other: intranasal instillation, mice, intranasal DLPC liposomal CPT 7 μg per mouse, read-out: CPT in tissue
Method: The mobile phase was 30% acetonitrile and 70% of 0.1% glacial acetic acid. CPT was detected using the Waters 470 scanning fluorescence detector set to an excitation wavelength of 370 nm and an emission wavelength of 440 nm. […] The data were analyzed with the Waters Millenium software. […]
CPT was administered in liposomal formulation prepared with DLPC with initial drug concentration 0.2 mg/ml.
35 μL of suspension was installed to each animal (group of 3 animals was treated for each time point).

[2] = Tissue distribution of CPT after inhalation of CPT liposome aerosol; format: in vivo, Mouse; conditions: mice; for CPT in tissue: individual animals; for concentration at 15 min: mouse, in vivo, 486 ng per mouse, 4 animals, read-out: MEAN (±SD) CPT in tissue
Method: The final suspension was clear. If precipitation occurred, it was reheated to 50-60° C. The preparation was frozen in liquid nitrogen and lyophilized overnight. For use the material was dissolved in sterile water to the appropriate drug concentration, not exceeding 1.0 mg/ml for either drug. The efficiency of incorporation of drug in the liposomes was examined qualitatively by microscopic examination under polarized light. Unincorporated drug was seen as bi-refringent crystals. The efficiency of incorporation was examined by centrifugation of aqueous suspensions of liposomes on Percoll™ gradients. One-tenth ml of suspension was layered over 2 ml of gradient and centrifuged at 2000 rpm for 25-30 minutes. Liposomes layer at the water-Percoll interface, while unincorporated drug was deposited at the bottom of the tube. Many other lipids may be substituted for DLPC in the formulation and use of liposomes for delivery of drugs by aerosol (26).
(§1) The mobile phase was 30% acetonitrile and 70% of 0.1% glacial acetic acid. CPT was detected using the Waters 470 scanning fluorescence detector set to an excitation wavelength of 370 nm and an emission wavelength of 440 nm. […] The data were analyzed with the Waters Millenium software.
The deposited dose was calculated to be 486 ng per mouse. The mean concentrations in lungs and liver were similar with smaller concentrations in the other sites examined. […] Drug was cleared promptly from the lungs so that 15 minutes after stopping nebulization only negligible amounts of drug were present in the lungs. Liver, kidney and spleen had substantial amounts of drug initially which gradually diminished through the one hour of study. […] These studies indicate substantial immediate deposition of drug in the lungs with rapid clearance to the viscera. The amount of drug contributed by absorption from swallowed drug is uncertain.

[3] = Time dependent organ distribution of CPT after intramuscular administration; format: in vivo; conditions: mouse, mice, i.m. CPT in DMSO/saline suspension, read-out: CPT in tissue
Method: as §1
Drug disappeared very slowly from the site of intramuscular injection in the first 12 hours, with only very small concentrations detected in the liver and virtually no drug present at other sites. Concentrations in the blood were negligible throughout the study. The dose administered was the same as that given by intranasal instillation. These findings indicate a speedier and more efficient systemic absorption of drug after pulmonary administration of drug than by the intramuscular route. It is likely that deposition in organs and vascular spaces will increase the opportunity for exposure to albumin molecules and degradation to the carboxyl form of the drug.

[4] = Blood, after 15 minutes inhalation of CPT liposome aerosol
[5] = Kidney, after 15 minutes inhalation of CPT liposome aerosol
[6] = Liver, after 15 minutes inhalation of CPT liposome aerosol
[7] = Spleen, after 15 minutes inhalation of CPT liposome aerosol
[8] = site of injection, 7 µg/mouse, Site of inj.
[9] = whole blood, 7 μg per mouse, Blood

With `CC[C@@]1(O)C(=O)OCc2c1cc1n(c2=O)Cc2cc3ccccc3nc2-1` [CPT, 20-S-camptothecin] the concentration at 0 min ([1]; Kidney) was 542 ± 174 ng/g, the concentration at 15 min ([1]; Kidney) was 190 ± 57 ng/g and the concentration at 30 min ([1]; Kidney) was 49 ± 13 ng/g. The concentration at 60 min ([1]; Kidney) was 24 ± 21 ng/g, the concentration at 0 min ([1]; Liver) was 651 ± 418 ng/g and the concentration at 15 min ([1]; Liver) was 255 ± 101 ng/g. For the same molecule, the concentration at 30 min ([1]; Liver) was 66 ± 17 ng/g, the concentration at 60 min ([1]; Liver) was 34 ± 7 ng/g and the concentration at 0 min ([1]; Lung) was 1290 ± 657 ng/g. It also gave a concentration at 15 min ([1]; Lung) of 19 ± 3 ng/g, a concentration at 30 min ([1]; Lung) of 36 ± 23 ng/g and a concentration at 60 min ([1]; Lung) of 7 ± 3 ng/g. For the same molecule, the concentration at 0 min ([1]; Spleen) was 351 ± 137 ng/g, the concentration at 15 min ([1]; Spleen) was 84 ± 32 ng/g and the concentration at 30 min ([1]; Spleen) was 21 ± 8 ng/g. It also gave a concentration at 60 min ([1]; Spleen) of 7 ± 2 ng/g, a concentration at 0 min ([1]; whole blood, Blood) of 213 ± 19 ng/g and a concentration at 15 min ([1]; whole blood, Blood) of 53 ± 20 ng/g. For the same molecule, the concentration at 30 min ([1]; whole blood, Blood) was 8 ± 3 ng/g, the concentration at 60 min ([1]; whole blood, Blood) was 4 ± 2 ng/g and the CPT in tissue [2, 4] was 7.1 ng/gm and 8.3 ng/gm and 22.6 ng/gm and 17.7 ng/gm. For the same molecule, the CPT in tissue [2, 5] was 21.8 ng/gm and 18.0 ng/gm and 50.0 ng/gm and 29.3 ng/gm, the CPT in tissue [2, 6] was 44.3 ng/gm (2×) and 21.9 ng/gm and 178.0 ng/gm and the CPT in tissue ([2]; Lung, after 15 minutes inhalation of CPT liposome aerosol (0.2 mg/ml in nebulizer)) was 48.0 ng/gm and 27.0 ng/gm and 77.5 ng/gm and 52.0 ng/gm. The CPT in tissue [2, 7] was 16.4 ng/gm and 11.4 ng/gm and 25.0 ng/gm and 12.0 ng/gm, the concentration at 15 min [2, 4] was 13.9 ± 7.5 ng/g and the concentration at 15 min [2, 5] was 29.8 ± 14.3 ng/g. It also gave a concentration at 15 min [2, 6] of 72.1 ± 71.4 ng/g, a concentration at 15 min ([2]; Lung, after 15 minutes inhalation of CPT liposome aerosol) of 51.1 ± 20.7 ng/g and a concentration at 15 min [2, 7] of 16.2 ± 6.3 ng/g. The concentration at 0 min ([3]; 7 μg per mouse, Kidney) was 2 ng/g, the concentration at 30 min ([3]; 7 μg per mouse, Kidney) was 40 ± 14 ng/g and the concentration at 60 min ([3]; 7 μg per mouse, Kidney) was 26 ± 7 ng/g. It also gave a concentration at 1200 min ([3]; 7 μg per mouse, Kidney) of 15 ± 5 ng/g, a concentration at 0 min ([3]; 7 μg per mouse, Spleen) of 2 ± 1 ng/g and a concentration at 30 min ([3]; 7 μg per mouse, Spleen) of 18 ± 9 ng/g. It also gave a concentration at 60 min ([3]; 7 μg per mouse, Spleen) of 11 ± 5 ng/g, a concentration at 1200 min ([3]; 7 μg per mouse, Spleen) of 5 ± 1 ng/g and a concentration at 60 min ([3]; 7 µg/mouse, Blood) of 8 ± 1 ng/g. For the same molecule, the concentration at 1200 min ([3]; 7 µg/mouse, Blood) was 4 ± 1 ng/g, the concentration at 0 min ([3]; 7 µg/mouse, Liver) was 3 ± 1 ng/g and the concentration at 30 min ([3]; 7 µg/mouse, Liver) was 87 ± 74 ng/g. It also gave a concentration at 60 min ([3]; 7 µg/mouse, Liver) of 136 ± 107 ng/g, a concentration at 1200 min ([3]; 7 µg/mouse, Liver) of 126 ± 116 ng/g and a concentration at 0 min ([3]; 7 µg/mouse, Lung) of 2 ± 1 ng/g. The concentration at 30 min ([3]; 7 µg/mouse, Lung) was 4 ± 2 ng/g, the concentration at 60 min ([3]; 7 µg/mouse, Lung) was 3 ± 3 ng/g and the concentration at 1200 min ([3]; 7 µg/mouse, Lung) was 4 ± 3 ng/g. It also gave a concentration at 0 min [3, 8] of 6920 ± 265 ng/g, a concentration at 30 min [3, 8] of 4310 ± 1550 ng/g and a concentration at 60 min [3, 8] of 4610 ± 1410 ng/g. It also gave a concentration at 1200 min [3, 8] of 1540 ± 751 ng/g, a concentration at 0 min [3, 9] of 2 ± 1 ng/g and a concentration at 30 min [3, 9] of 12 ± 5 ng/g.
